Measured values published in publication PMC10762035, “Molecular basis of human trace amine-associated receptor 1 activation” (Nature Communications, 2024).
Residue numbers refer to the chain shown, from its start. “And” between values parts separate entries of the source, which are not always exact repeats. Identical values can stand only once. Like-named read-outs stand apart in the source and are kept apart here.

Key:
Type in all cases: cell-based
[1] = target: T1, hTA1 b2N (Homo sapiens, UniProt Q96RJ0); assay: GloSensor cAMP accumulation assay, b2N construct; conditions: b2N; n=2; read-out: Span ± SEM (Emax normalized to β-PEA)
T1 construct: read by me as the first 25 residues of β2AR (N); expressed in transfected cells; host or cells: HEK293T

[2] = target: T2, hTA1 (Homo sapiens, UniProt Q96RJ0); assay: GloSensor cAMP accumulation assay, concentration response, wild-type hTA1 in transfected HEK293T cells; conditions: for Emax: HEK-293T;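 as to all read-outs here: luminescence read after 30 min compound exposure at room temperature in cells preloaded with D-Luciferin, reflecting Gs-driven cAMP rise, efficacy scaled to the maximal β-PEA response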
T2 construct: expressed in transfected cells; host or cells: HEK293T
T2 sequence (Q96RJ0 1-339): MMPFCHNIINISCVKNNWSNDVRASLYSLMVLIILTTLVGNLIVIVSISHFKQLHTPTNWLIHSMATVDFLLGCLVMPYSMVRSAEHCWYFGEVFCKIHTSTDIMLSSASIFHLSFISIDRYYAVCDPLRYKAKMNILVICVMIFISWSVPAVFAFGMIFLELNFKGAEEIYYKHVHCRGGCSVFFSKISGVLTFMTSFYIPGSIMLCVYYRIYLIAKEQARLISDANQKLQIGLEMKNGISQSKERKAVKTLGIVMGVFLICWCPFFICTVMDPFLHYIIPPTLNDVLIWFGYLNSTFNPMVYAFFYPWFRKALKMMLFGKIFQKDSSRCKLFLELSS

[3] = target: T3, hTA1 S107C (Homo sapiens, UniProt Q96RJ0, S107C); assay: GloSensor cAMP accumulation assay, S107C mutant;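 also: cells transiently co-expressing receptor and GloSensor biosensor, luminescence read after 30 min agonist exposure at room temperature, concentration-response fitted by nonlinear regression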
T3 construct: expressed in transfected cells; host or cells: HEK293T
T3 sequence (Q96RJ0 1-339 S107C): T2 sequence (Q96RJ0 1-339) with S107C

[4] = target: T4, hTA1 C13S (Homo sapiens, UniProt Q96RJ0, C13S); assay: GloSensor cAMP accumulation assay, C13S mutant
T4 construct: expressed in transfected cells; host or cells: HEK293T
T4 sequence (Q96RJ0 1-339 C13S): T2 sequence (Q96RJ0 1-339) with C13S

[5] = target: T5, hTA1 T271N (Homo sapiens, UniProt Q96RJ0, T271N); assay: GloSensor cAMP accumulation assay, T271N mutant; conditions: for Emax: T271N
T5 construct: expressed in transfected cells; host or cells: HEK293T
T5 sequence (Q96RJ0 1-339 T271N): T2 sequence (Q96RJ0 1-339) with T271N

[6] = target: T6, hTA1 I290Y (Homo sapiens, UniProt Q96RJ0, I290Y); assay: GloSensor cAMP accumulation assay, I290Y mutant; conditions: for cAMP accumulation response, normalized (concentration-response source data, single replicate values): hTA1 I290Y (N=3), log[Compound];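 as to cAMP accumulation response, normalized (concentration-response source data, single replicate values): normalized to the maximum response of β-PEA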
T6 construct: expressed in transfected cells; host or cells: HEK293T
T6 sequence (Q96RJ0 1-339 I290Y): T2 sequence (Q96RJ0 1-339) with I290Y

T1 sequence (Q96RJ0 with tags, fused parts or gaps): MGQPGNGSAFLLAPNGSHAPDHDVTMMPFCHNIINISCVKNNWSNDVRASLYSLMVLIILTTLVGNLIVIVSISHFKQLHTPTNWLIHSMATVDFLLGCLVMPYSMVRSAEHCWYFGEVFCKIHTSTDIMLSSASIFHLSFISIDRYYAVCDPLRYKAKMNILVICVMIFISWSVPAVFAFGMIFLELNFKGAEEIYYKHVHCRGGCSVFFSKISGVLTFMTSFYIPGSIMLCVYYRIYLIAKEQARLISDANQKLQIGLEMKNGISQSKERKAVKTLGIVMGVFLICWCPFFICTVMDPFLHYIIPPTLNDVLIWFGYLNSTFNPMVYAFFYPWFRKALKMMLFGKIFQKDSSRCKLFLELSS

## CCc1[nH]nc(C(=O)Nc2ccc([C@H]3CNCCO3)cc2)c1C [ralmitaront]
[1]
  Emax: 82.5 ± 4.39%
[2]
  Emax: 40.1%
[2]; WT hTA1, β-PEA = 100, average of the two experiments, read-out: Emax values, Avg
  Emax: 40.1%
[2]; WT hTA1, β-PEA = 100, each line an independent experiment, 3 replicates
  Emax values, Mean: 54.4399 and 25.7884
[2]; WT, average of the experiments, β-PEA = 100
  Emax values, Avg: 40.11
[2]; WT, average of the two experiments
  Emax values, Avg: 40.11
[2]; WT, mean of each independent experiment (3 replicates), β-PEA = 100
  Emax values, Mean: 54.4399 and 25.7884
[2]; WT, single experiments (3 replicates each), β-PEA = 100
  Emax values, Mean: 54.4399 and 25.7884
[3]; S107C mutant minus WT average
  ΔEmax values (each mutant value - WT average): 1.2358
[3]; S107C mutant, β-PEA = 100, each line an independent experiment, 3 replicates
  Emax values, Mean: 57.0471
[3]; S107C mutant, β-PEA = 100, each line an independent experiment, 3 replicates, read-out: Emax values (Mean)
  Emax: 41.3%
[3]; S107C, n=2, read-out: Span ± SEM (Emax normalized to β-PEA)
  Emax: 49.2 ± 7.85%
[4]; C13S
  ΔpEC50 values (each mutant value - WT average): -0.1563 and -0.05083
[4]; C13S, Mean of fit per experiment
  Emax values: 28.9629
[4]; C13S, Mean of fit per experiment, read-out: Emax values
  Emax: 23.8%
[4]; C13S, n=2, read-out: Span ± SEM (Emax normalized to β-PEA)
  Emax: 26.4 ± 2.6%
[4]; log[Compound], M = -5, single wells
  C13S - Normalized Luminescence Counts (N=2): 24.7419 and 34.2578 and 19.4511 and 28.8102 and 35.1294 and 22.0805
[5]; T271N mutant minus WT average, Figure 5B
  ΔpEC50 values (each mutant value - WT average), Mean: 0.04727 and -0.1115
[5]; T271N mutant, Figure 5B, β-PEA = 100, each row one independent experiment (3 replicates)
  Emax values, Mean: 121.192 and 53.6921
[5]; n=2, read-out: Span ± SEM (Emax normalized to β-PEA)
  Emax: 87.4 ± 33.8%
[5]; relative to β-PEA, read-out: Emax
  Emax: 87.4%
[6]; I290Y, read-out: Span ± SEM (Emax normalized to β-PEA)
  Emax: 17.6 ± 2.61%
[6]; I290Y, single experiments (3 replicates each), β-PEA = 100
  Emax values, Mean: 14.0517 and 22.6718 and 15.9842
[6]; M = -5
  cAMP accumulation response, normalized (concentration-response source data, single replicate values): 15.3564 and 19.3577 and 13.5096 and 22.3431 and 15.3808 and 18.6787 and 17.3474 and 21.8593 and 16.2195
[6]; M = -5.522
  cAMP accumulation response, normalized (concentration-response source data, single replicate values): 12.5863 and 17.5109 and 9.201 and 20.8774 and 14.2815 and 17.213 and 8.324 and 11.7076 and 15.0915
[6]; M = -6
  cAMP accumulation response, normalized (concentration-response source data, single replicate values): 6.738 and 15.972 and 11.3551 and 15.0144 and 31.5041 and 26.3739 and 8.324 and 3.812 and 11.7076
[6]; M = -6.522
  cAMP accumulation response, normalized (concentration-response source data, single replicate values): 9.508 and 11.6629 and 4.584 and 19.0452 and 19.7781 and 16.4801 and 8.324 (2×) and 15.0915
[6]; M = -7
  cAMP accumulation response, normalized (concentration-response source data, single replicate values): 5.199 and 18.1265 and 8.893 and 8.052 and 10.6171 and 15.0144 and 6.068 (2×) and 10.5796
[6]; M = -7.522
  cAMP accumulation response, normalized (concentration-response source data, single replicate values): 5.815 and 14.7408 and 3.6603 and 6.22 and 6.586 and 4.754 and 1.556 and -0.7002 and 0.4278
[6]; M = -8
  cAMP accumulation response, normalized (concentration-response source data, single replicate values): 4.584 and 6.738 and 6.43 and 5.853 and 4.388 and 1.823 and -2.956 and -1.828 and -0.7002
[6]; M = -8.522
  cAMP accumulation response, normalized (concentration-response source data, single replicate values): -1.264 and 1.506 and 0.8902 and -4.04 and -4.407 and 4.021 and -5.212 and -4.0841 and -2.956
[6]; M = -9
  cAMP accumulation response, normalized (concentration-response source data, single replicate values): -2.496 and -0.341 and -1.88 and -5.14 and -1.109 and 9.151 and -5.212 and -4.0841 and -2.956
[6]; M = -9.522
  cAMP accumulation response, normalized (concentration-response source data, single replicate values): -3.7267 and -1.264 and -2.803 and -1.475 and -4.407 and 4.388 and -4.0841 (2×) and -2.956
[6]; M = -10
  cAMP accumulation response, normalized (concentration-response source data, single replicate values): -2.188 (2×) and -0.6488 and -5.873 and -0.7424 and -6.239 and -2.956 (2×) and -1.828
[6]; M = -10.522
  cAMP accumulation response, normalized (concentration-response source data, single replicate values): -2.496
